# Test results reported in US20150025236A1, “PROCESS FOR THE PREPARATION OF STABLE CRYSTALLINE FORM-I OF LINEZOLID, SUBSTANTIALLY FREE OF RESIDUAL SOLVENT” (Jubilant Life Sciences Limited, priority 2012, published 2015).
# Assay: Stability study: determination of linezolid Form-II content in linezolid Form-I (polymorph status by XRD)
structure (smiles),measurement,setting,value
"CC(=O)NC[C@H]1CN(c2ccc(N3CCOCC3)c(F)c2)C(=O)O1 [Linezolid Form-I, (S)—N-[[3-(3-fluoro-4-morpholinylphenyl)-2-oxo-5-oxazolidinyl]methyl]acetamide]",Polymorphic stability (formation of polymorphic impurity Form-II),"containing residual solvent(s), though complying with the regulatory norms",undergoes transformation into Form II
same,Time stable during stability study,different conditions of relative humidity (RH) and temperature (Table-1),up to 12 months
same,Polymorphic stability (formation of polymorphic impurity Form-II),substantially free of solvent(s),"does not generate polymorphic impurity, Form-II"
